Consider twelve compounds from patent US4772606A, “Purine derivatives” (Warner-Lambert Company, priority 1985, dated 1988).

Each structure is given as a SMILES string. Counter-ions that a name gives are not always drawn. Like-named read-outs stand apart in the source and are kept apart here.

For one experiment, the system named is T-Cell. Put plainly: HTBA-1 T-cell cytotoxicity in the presence of 2'-deoxyguanosine. In kind it is cell-based. The conditions noted are these: read-out: HTBA-1 T-Cell +dGuo (10 μM) IC50.
In experiment [1] the target is T1, purine nucleoside phosphorylase (PNP-4) (Homo sapiens, UniProt P00491).
T1 construct: using hyman erythrocyte as the enzyme source; from tissue; host or cells: human erythrocytes
T1 sequence (P00491 1-289): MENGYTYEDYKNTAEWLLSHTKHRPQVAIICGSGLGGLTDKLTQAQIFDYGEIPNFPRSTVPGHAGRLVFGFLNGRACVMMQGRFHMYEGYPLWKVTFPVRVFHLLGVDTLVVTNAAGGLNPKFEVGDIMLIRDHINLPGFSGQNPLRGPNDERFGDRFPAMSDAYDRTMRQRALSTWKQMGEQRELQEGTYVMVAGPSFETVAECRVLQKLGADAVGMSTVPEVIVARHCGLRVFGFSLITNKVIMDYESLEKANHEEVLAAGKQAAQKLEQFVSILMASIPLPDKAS
Put plainly: purine nucleoside phosphorylase (PNP-4) enzyme assay, radiochemical, formation of [14C]-hypoxanthine from [14C]inosine. In kind it is biochemical. The conditions noted are these: erythrocyte enzyme; [14C]inosine substrate.

What is called IC50 is the concentration that gives 50% inhibition. Take `Nc1nc2c(nc(N)n2Cc2cccs2)c(=O)[nH]1` [2 or 9a]: the IC50 with T-Cell came to 0.83 µM; in experiment [1], 0.17 µM.

Regarding `Nc1nc2c(ncn2Cc2cccnc2)c(=O)[nH]1` [Example 1, 9-[(3-Pyridinyl)methyl]guanine], the half-inhibitory concentration (IC50) in the experiment with T-Cell (+dGuo (10 μM)) amounted to 54.1 µM; in experiment [1], 21.9 µM.

Turning to `CCc1ccc(Cn2cnc3c(=O)[nH]c(N)nc32)s1` [Example 3, 9-[(5-Ethyl-2-thienyl)methyl]guanine], the concentration for half-maximal inhibition (IC50) is 4.15 µM in the experiment on T-Cell (+dGuo (10 μM)) and 0.93 µM in experiment [1].

With `Nc1nc2c(nc(N)n2Cc2ccco2)c(=O)[nH]1` [Example 9b, 8-Amino-9-(2-furanylmethyl)guanine monohydrochloride], the IC50 with T-Cell amounted to 2.57 µM; in experiment [1] it was 0.25 µM.

For the compound `Nc1nc2c(nc(N)n2Cc2ccsc2)c(=O)[nH]1` [Example 9c, 8-Amino-9-[(3-thienyl)methyl]guanine, monohydrochloride, monohydrate], the results for the IC50 (with T-Cell (+dGuo (10 μM)); in experiment [1]) were 0.49 µM and 0.085 µM, respectively.

Take `Cc1ccsc1Cn1c(N)nc2c(=O)[nH]c(N)nc21` [Example 9d, 8-Amino-9-[(3-methyl-2-thienyl)methyl]guanine]: the concentration for half-maximal inhibition (IC50) in the experiment on T-Cell (+dGuo (10 μM)) turned out to be 8.6 µM; in experiment [1], 4.05 µM.

As for `Nc1nc2c(nc(N)n2Cc2csc3ccccc23)c(=O)[nH]1` [Example 9e, 8-Amino-9-[(benzo[b]thien-3-yl)methyl]guanine], half-maximal inhibition in experiment [1] (IC50) was put at 140 µM.

For the compound `Nc1nc2c(nc(N)n2CCc2cccs2)c(=O)[nH]1` [Example 16Ac], the IC50 in the experiment with T-Cell (+dGuo (10 μM)) came to 17.6 µM; in experiment [1], 6.25 µM.

As for `Cc1sccc1Cn1c(N)nc2c(=O)[nH]c(N)nc21` [Example 16Ad], the IC50 in the experiment with T-Cell (+dGuo (10 μM)) worked out at 18.2 µM; in experiment [1], 1.72 µM.

In experiment [1], `Nc1nc2c(nc(N)n2Cc2ccccn2)c(=O)[nH]1` [Example 16Af] showed a 50% inhibitory concentration (IC50) of 4.6 µM.

As to `Nc1nc2c(nc(N)n2Cc2cc3ccccc3s2)c(=O)[nH]1` [Example 16Ag], the IC50 in the experiment on T-Cell (+dGuo (10 μM)) was above 12.5 µM; in experiment [1] it was 8.45 µM.

With `Cc1cc(Cn2c(N)nc3c(=O)[nH]c(N)nc32)cs1` [Example 16Ak], the concentration for half-maximal inhibition (IC50) in the experiment with T-Cell (+dGuo (10 μM)) is 2.8 µM; in experiment [1], 0.63 µM.
